The assay concerns the target Human recombinant Histone Deacetylase 8 (HDAC8) (Homo sapiens (Human), UniProt Q9BY41). Nature of the assay: HDAC8 Enzymatic Assay (HDAC-Glo I/II luminescence). Format: biochemical. The procedure, abridged: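 Human recombinant HDAC8 (1.5 nM final) preincubated with compound for 30 min, then reacted with 50 μM Boc-GAK(Ac)-aminoluciferin plus trypsin-containing developer for 15 min at room temperature, pH 8.0, 0.5% DMSO. Luminescence read-out; IC50 from percent control activity versus log concentration.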

Where [1] appears, read: class symbols, Table 14, read-out: HDAC8 IC50.

By IC50 is commonly meant the concentration that inhibits the measured activity by half.

Like-named read-outs stand apart in the source and are kept apart here.

Human recombinant Histone Deacetylase 8 (HDAC8), sequence (Q9BY41 whole entry): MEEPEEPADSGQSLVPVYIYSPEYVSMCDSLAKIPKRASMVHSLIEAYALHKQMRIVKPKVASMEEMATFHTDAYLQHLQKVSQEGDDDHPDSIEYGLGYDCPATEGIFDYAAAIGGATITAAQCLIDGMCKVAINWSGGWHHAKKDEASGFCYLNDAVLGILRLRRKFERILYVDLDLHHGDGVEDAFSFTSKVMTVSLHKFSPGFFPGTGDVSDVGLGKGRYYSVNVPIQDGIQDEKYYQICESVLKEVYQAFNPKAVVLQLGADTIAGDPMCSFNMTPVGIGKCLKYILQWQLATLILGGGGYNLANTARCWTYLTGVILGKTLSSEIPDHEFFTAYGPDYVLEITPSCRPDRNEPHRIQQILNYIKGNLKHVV

On to `COCc1ccc(-c2ccn3c(C(Cc4ccccc4)C(=O)NO)cnc3c2)cc1` (stereo not shown) [Compound I-0150, N-hydroxy-2-(7-(4-(methoxymethyl)phenyl)imidazo[1,2-a]pyridin-3-yl)-3-phenylpropanamide], for which the 50% inhibitory concentration (IC50) under setting [1] was greater than 500 nM. Still for that read-out and setting: under `CN1CCN(c2ccc(-c3ccn4c(C(Cc5ccccc5)C(=O)NO)cnc4c3)cc2)CC1` (stereo not shown) [Compound I-0151, N-hydroxy-2-(7-(4-(4-methylpiperazin-1-yl)phenyl)imidazo[1,2-a]pyridin-3-yl)-3-phenylpropanamide] stands greater than 500 nM. With `CN1CCN(c2ccc(-c3ccn4c(C(Cc5ccccc5)C(=O)NO)cnc4c3)cn2)CC1` (stereo not shown) [Compound I-0152, N-hydroxy-2-(7-(6-(4-methylpiperazin-1-yl)pyridin-3-yl)imidazo[1,2-a]pyridin-3-yl)-3-phenylpropanamide], the IC50 under setting [1] is 200 to 500 nM. Same read-out and setting: the result for `O=C(NO)C(Cc1ccccc1)n1ncc2cc(C3CCC(N4CCCC4)CC3)ccc21` (stereo not shown) [Compound I-0153, N-hydroxy-3-phenyl-2-(5-(4-(pyrrolidin-1-yl)cyclohexyl)-1H-indazol-1-yl)propanamide] reads 50 to 200 nM. Consider `O=C(NO)C(Cc1ccccc1)n1nc2c(-c3ccncc3)cccc2c1C#CC1CC1` (stereo not shown) [Compound I-0154, 2-(3-(cyclopropylethynyl)-7-(pyridin-4-yl)-2H-indazol-2-yl)-N-hydroxy-3-phenylpropanamide], for which the half-maximal inhibitory concentration (IC50) under setting [1] was no more than 50 nM. Still for that read-out and setting: under `O=C(NO)C(Cc1ccccc1)n1nc2c(-c3cccnc3)cccc2c1C#CC1CC1` (stereo not shown) [Compound I-0155, 2-(3-(cyclopropylethynyl)-7-(pyridin-3-yl)-2H-indazol-2-yl)-N-hydroxy-3-phenylpropanamide] stands no more than 50 nM; under `O=C(NO)C(Cc1ccccc1)n1nc2c(-c3cncnc3)cccc2c1C#CC1CC1` (stereo not shown) [Compound I-0156, 2-(3-(cyclopropylethynyl)-7-(pyrimidin-5-yl)-2H-indazol-2-yl)-N-hydroxy-3-phenylpropanamide], no more than 50 nM; under `NC(=O)c1cccc(-c2cccc3c(C#CC4CC4)n(C(Cc4ccccc4)C(=O)NO)nc23)c1` (stereo not shown) [Compound I-0157, 3-(3-(cyclopropylethynyl)-2-(1-(hydroxyamino)-1-oxo-3-phenylpropan-2-yl)-2H-indazol-7-yl)benzamide], no more than 50 nM. Turning to `CNC(=O)c1cccc(-c2cccc3c(C#CC4CC4)n(C(Cc4ccccc4)C(=O)NO)nc23)c1` (stereo not shown) [Compound I-0158, 3-(3-(cyclopropylethynyl)-2-(1-(hydroxyamino)-1-oxo-3-phenylpropan-2-yl)-2H-indazol-7-yl)-N-methylbenzamide], the IC50 under setting [1] was no more than 50 nM. Still for that read-out and setting: under `CN(C)C(=O)c1cccc(-c2cccc3c(C#CC4CC4)n(C(Cc4ccccc4)C(=O)NO)nc23)c1` (stereo not shown) [Compound I-0159, 3-(3-(cyclopropylethynyl)-2-(1-(hydroxyamino)-1-oxo-3-phenylpropan-2-yl)-2H-indazol-7-yl)-N,N-dimethylbenzamide] stands no more than 50 nM; under `O=C(NO)C(Cc1ccccc1)n1nc2c(C3CC3)cccc2c1C#CC1CC1` (stereo not shown) [Compound I-0160, 2-(7-cyclopropyl-3-(cyclopropylethynyl)-2H-indazol-2-yl)-N-hydroxy-3-phenylpropanamide], no more than 50 nM. On the same count and under the same terms, under `Cc1cccc2c(C#CC3CC3)n(C(Cc3ccccc3)C(=O)NO)nc12` (stereo not shown) [Compound I-0161, 2-(3-(cyclopropylethynyl)-7-methyl-2H-indazol-2-yl)-N-hydroxy-3-phenylpropanamide] stands no more than 50 nM.

On to `O=C(NO)C(Cc1ccccc1)c1cnc2c(-c3ccncc3)cccn12` (stereo not shown) [Compound I-0162, N-hydroxy-3-phenyl-2-(8-(pyridin-4-yl)imidazo[1,2-a]pyridin-3-yl)propanamide], for which the IC50 under setting [1] lay within 200 to 500 nM.

`O=C(NO)C(Cc1ccccc1)c1cnc2c(-c3cccnc3)cccn12` (stereo not shown) [Compound I-0163, N-hydroxy-3-phenyl-2-(8-(pyridin-3-yl)imidazo[1,2-a]pyridin-3-yl)propanamide]: under setting [1], the IC50 was greater than 500 nM.

For `O=C(NO)C(Cc1ccccc1)c1cnc2c(-c3cncnc3)cccn12` (stereo not shown) [Compound I-0164, N-hydroxy-3-phenyl-2-(8-pyrimidin-5-ylimidazo[1,2-a]pyridin-3-yl)propanamide], the half-maximal inhibitory concentration (IC50) under setting [1] was greater than 500 nM. The same measure, in the same setting: under `COCCn1cc(-c2cccc3c(C#CC4CC4)n(C(Cc4ccccc4)C(=O)NO)nc23)c(C)n1` (stereo not shown) [Compound I-0165, 2-(3-(cyclopropylethynyl)-7-(1-(2-methoxyethyl)-3-methyl-1H-pyrazol-4-yl)-2H-indazol-2-yl)-N-hydroxy-3-phenylpropanamide] stands no more than 50 nM; under `Cc1n[nH]cc1-c1cccc2c(C#CC3CC3)n(C(Cc3ccccc3)C(=O)NO)nc12` (stereo not shown) [Compound I-0166, 2-(3-(cyclopropylethynyl)-7-(3-methyl-1H-pyrazol-4-yl)-2H-indazol-2-yl)-N-hydroxy-3-phenylpropanamide], no more than 50 nM; under `NC(=O)c1ccc(-c2cccn3c(C(Cc4ccccc4)C(=O)NO)cnc23)cc1` (stereo not shown) [Compound I-0167, 4-(3-(1-(hydroxyamino)-1-oxo-3-phenylpropan-2-yl)imidazo[1,2-a]pyridin-8-yl)benzamide], 200 to 500 nM. Take `CN(C)C(=O)c1ccc(-c2cccn3c(C(Cc4ccccc4)C(=O)NO)cnc23)cc1` (stereo not shown) [Compound I-0168, 4-(3-(1-(hydroxyamino)-1-oxo-3-phenylpropan-2-yl)imidazo[1,2-a]pyridin-8-yl)-N,N-dimethylbenzamide]: the half-maximal inhibitory concentration (IC50) under setting [1] was greater than 500 nM. On the same count and under the same terms, under `NC(=O)c1cccc(-c2cccn3c(C(Cc4ccccc4)C(=O)NO)cnc23)c1` (stereo not shown) [Compound I-0169, 3-(3-(1-(hydroxyamino)-1-oxo-3-phenylpropan-2-yl)imidazo[1,2-a]pyridin-8-yl)benzamide] stands 200 to 500 nM; under `O=C(NO)C(Cc1ccccc1)c1cnc2c(C3CC3)cccn12` (stereo not shown) [Compound I-0170, 2-(8-cyclopropylimidazo[1,2-a]pyridin-3-yl)-N-hydroxy-3-phenylpropanamide], greater than 500 nM. On the same count and under the same terms, under `Cc1cccn2c(C(Cc3ccccc3)C(=O)NO)cnc12` (stereo not shown) [Compound I-0171, N-hydroxy-2-(8-methylimidazo[1,2-a]pyridin-3-yl)-3-phenylpropanamide] stands 200 to 500 nM. Consider `COC(=O)C(Cc1ccccc1)n1cc2cccc(C(=O)N3CCC(F)(F)CC3)c2n1` (stereo not shown) [Compound I-0172, methyl 2-(7-(4,4-difluoropiperidine-1-carbonyl)-2H-indazol-2-yl)-3-phenylpropanoate], for which the half-maximal inhibitory concentration (IC50) under setting [1] lay in the range of 200 to 500 nM. As to `O=C(NO)C(Cc1ccccc1)n1cc2cccc(C(=O)N3CCOCC3)c2n1` (stereo not shown) [Compound I-0173, N-hydroxy-2-[7-(morpholin-4-ylcarbonyl)-2H-indazol-2-yl]-3-phenylpropanamide], the IC50 runs as follows: (HDAC8, read-out: IC50) 1170 nM; under setting [1], greater than 500 nM. Regarding `O=C(NO)C(Cc1ccccc1)n1cc2cccc(C(=O)N3CCC4(CC3)COC4)c2n1` (stereo not shown) [Compound I-0174, 2-(7-(2-oxa-7-azaspiro[3.5]nonane-7-carbonyl)-2H-indazol-2-yl)-N-hydroxy-3-phenylpropanamide], the IC50 under setting [1] was greater than 500 nM. For the compound `O=C(NO)C(Cc1ccccc1)n1cc2cccc(C(=O)N3CCC4(CCOCC4)CC3)c2n1` (stereo not shown) [Compound I-0175, 2-(7-(3-oxa-9-azaspiro[5.5]undecane-9-carbonyl)-2H-indazol-2-yl)-N-hydroxy-3-phenylpropanamide], under setting [1], the half-maximal inhibitory concentration (IC50) is greater than 500 nM. Consider `O=C(NC1CCOCC1)c1cccc2cn(C(Cc3ccccc3)C(=O)NO)nc12` (stereo not shown) [Compound I-0176, 2-(1-(hydroxyamino)-1-oxo-3-phenylpropan-2-yl)-N-(tetrahydro-2H-pyran-4-yl)-2H-indazole-7-carboxamide], for which the IC50 under setting [1] fell in the range of 50 to 200 nM. Regarding `O=C(NCC1CCOCC1)c1cccc2cn(C(Cc3ccccc3)C(=O)NO)nc12` (stereo not shown) [Compound I-0177, 2-(1-(hydroxyamino)-1-oxo-3-phenylpropan-2-yl)-N-((tetrahydro-2H-pyran-4-yl)methyl)-2H-indazole-7-carboxamide], the IC50 under setting [1] was no more than 50 nM. In the case of `O=C(NCCC1CCOCC1)c1cccc2cn(C(Cc3ccccc3)C(=O)NO)nc12` (stereo not shown) [Compound I-0178, 2-(1-(hydroxyamino)-1-oxo-3-phenylpropan-2-yl)-N-(2-(tetrahydro-2H-pyran-4-yl)ethyl)-2H-indazole-7-carboxamide], the 50% inhibitory concentration (IC50) under setting [1] is no more than 50 nM.

Consider `O=C(NCCN1CCOCC1)c1cccc2cn(C(Cc3ccccc3)C(=O)NO)nc12` (stereo not shown) [Compound I-0179, 2-(1-(hydroxyamino)-1-oxo-3-phenylpropan-2-yl)-N-(2-morpholinoethyl)-2H-indazole-7-carboxamide], for which the IC50 under setting [1] lay within 50 to 200 nM. With `O=C(NO)C(Cc1ccccc1)n1cc2cccc(CNC3CC3)c2n1` (stereo not shown) [Compound I-0180, 2-{7-[(Cyclopropylamino)methyl]-2H-indazol-2-yl}-N-hydroxy-3-phenylpropanamide], the 50% inhibitory concentration (IC50) was 469 nM (HDAC8, read-out: IC50) and 200 to 500 nM under setting [1]. For the compound `O=C(NO)C(Cc1ccccc1)n1cc2cccc(CNCC3CC3)c2n1` (stereo not shown) [Compound I-0181, 2-(7-((cyclopropylmethylamino)methyl)-2H-indazol-2-yl)-N-hydroxy-3-phenylpropanamide], under setting [1], the IC50 is greater than 500 nM. Still for that read-out and setting: the result for `O=C(NO)C(Cc1ccccc1)n1cc2cccc(CNC3CCOCC3)c2n1` (stereo not shown) [Compound I-0182, N-hydroxy-3-phenyl-2-(7-((tetrahydro-2H-pyran-4-ylamino)methyl)-2H-indazol-2-yl)propanamide] reads greater than 500 nM. Still for that read-out and setting: under `O=C(NO)C(Cc1ccccc1)n1cc2cccc(CN3CCOCC3)c2n1` (stereo not shown) [Compound I-0183, N-hydroxy-2-(7-(morpholinomethyl)-2H-indazol-2-yl)-3-phenylpropanamide] stands 200 to 500 nM; under `COC1CCN(Cc2cccc3cn(C(Cc4ccccc4)C(=O)NO)nc23)CC1` (stereo not shown) [Compound I-0184, N-hydroxy-2-(7-((4-methoxypiperidin-1-yl)methyl)-2H-indazol-2-yl)-3-phenylpropanamide], 200 to 500 nM.

Values taken from patent US10723705B2, “Heterocyclic compounds and uses thereof” (Incyte Corporation, priority 2015, dated 2020).
